Assay results reported in PubChem BioAssay AID226 (DTP/NCI, 2004).
“And” between values parts separate entries of the source, which are not always exact repeats. Equal entries are not always repeated. Toxic doses and inconclusive results are not listed.

Tested on: B6C3F1 mice, intracerebral ependymoblastoma, median survival T/C
Test: NCI In Vivo Anticancer Drug Screen. Data for tumor model Ependymoblastoma (intracerebral) in B6C3F1 mice
Conditions: endpoint: median survival time, higher = longer survival
Description: The antitumor activity of compounds was measured in mice bearing transplantable tumors. Survival or tumor size were measured and the results are expressed as the measurement made in the treated group (T) divided by the measurement made in the vehicle treated control group (C). The tumor model used in this assay is Ependymoblastoma (intracerebral) in B6C3F1 mice

[1] = dose: 32.0 mg/kg/injection, schedule: Q01DX005 (ip), vehicle: saline
[2] = dose: 64.0 mg/kg/injection, schedule: Q01DX005 (ip), vehicle: saline
[3] = dose: 128.0 mg/kg/injection, schedule: Q01DX005 (ip), vehicle: saline
[4] = dose: 50.0 mg/kg/injection, schedule: Q01DX005 (ip), vehicle: saline

O=NN(CCCl)C(=O)NC1CCCCC1
T/C (dose: 1.5 mg/kg/injection, schedule: Q01DX009 (ip), vehicle: Klucel (hydroxypropylcellulose) (HPC)): 110 % of control | T/C (dose: 2.4 mg/kg/injection, schedule: Q01DX001 (ip), vehicle: other): 98 % of control | T/C (dose: 4.0 mg/kg/injection, schedule: Q01DX009 (ip), vehicle: Klucel (hydroxypropylcellulose) (HPC)): 241 % of control | T/C (dose: 4.7 mg/kg/injection, schedule: Q01DX001 (ip), vehicle: other): 102 % of control | T/C (dose: 5.18 mg/kg/injection, schedule: Q01DX005 (ip), vehicle: Klucel (hydroxypropylcellulose) (HPC)): 154 % of control | T/C (dose: 6.0 mg/kg/injection, schedule: Q01DX009 (ip), vehicle: Klucel (hydroxypropylcellulose) (HPC)): 213 % of control | T/C (dose: 8.0 mg/kg/injection, schedule: Q01DX009 (ip), vehicle: Klucel (hydroxypropylcellulose) (HPC)): 241 % of control | T/C (dose: 8.64 mg/kg/injection, schedule: Q01DX005 (ip), vehicle: Klucel (hydroxypropylcellulose) (HPC)): 244 % of control | T/C (dose: 9.5 mg/kg/injection, schedule: Q01DX001 (ip), vehicle: other): 121 % of control | T/C (dose: 12.0 mg/kg/injection, schedule: Q01DX009 (ip), vehicle: Klucel (hydroxypropylcellulose) (HPC)): 326 % of control | T/C (dose: 13.0 mg/kg/injection, schedule: Q01DX001 (ip), vehicle: Klucel (hydroxypropylcellulose) (HPC)): 181 % of control | T/C (dose: 14.4 mg/kg/injection, schedule: Q01DX005 (ip), vehicle: Klucel (hydroxypropylcellulose) (HPC)): 357 % of control | T/C (dose: 16.0 mg/kg/injection, schedule: Q01DX009 (ip), vehicle: Klucel (hydroxypropylcellulose) (HPC)): 104 % of control | T/C (dose: 18.9 mg/kg/injection, schedule: Q01DX001 (ip), vehicle: other): 171 % of control | T/C (dose: 21.6 mg/kg/injection, schedule: Q01DX001 (ip), vehicle: Klucel (hydroxypropylcellulose) (HPC)): 193 % of control | T/C (dose: 24.0 mg/kg/injection, schedule: Q01DX005 (ip), vehicle: Klucel (hydroxypropylcellulose) (HPC)): 357 % of control | T/C (dose: 24.0 mg/kg/injection, schedule: Q01DX009 (ip), vehicle: Klucel (hydroxypropylcellulose) (HPC)): 315 % of control | T/C (dose: 32.0 mg/kg/injection, schedule: Q01DX001 (ip), vehicle: saline + alcohol): 233 % of control | T/C (dose: 36.0 mg/kg/injection, schedule: Q01DX001 (ip), vehicle: Klucel (hydroxypropylcellulose) (HPC)): 363 % of control | T/C (dose: 37.8 mg/kg/injection, schedule: Q01DX001 (ip), vehicle: other): 331 % of control | T/C (dose: 40.0 mg/kg/injection, schedule: Q01DX005 (ip), vehicle: Klucel (hydroxypropylcellulose) (HPC)): 154 % of control | T/C (dose: 60.0 mg/kg/injection, schedule: Q01DX001 (ip), vehicle: Klucel (hydroxypropylcellulose) (HPC)): 363 % of control | T/C (dose: 64.0 mg/kg/injection, schedule: Q01DX001 (ip), vehicle: saline + alcohol): 324 % of control | T/C (dose: 100.0 mg/kg/injection, schedule: Q01DX001 (ip), vehicle: Klucel (hydroxypropylcellulose) (HPC)): 363 % of control | T/C (dose: 128.0 mg/kg/injection, schedule: Q01DX001 (ip), vehicle: saline + alcohol): 90 % of control

O=C1c2c(O)ccc(O)c2C(=O)c2c(NCCNCCO)ccc(NCCNCCO)c21
T/C (dose: 0.25 mg/kg/injection, schedule: Q01DX005 (ip), vehicle: saline with Tween-80): 103 % of control | T/C (dose: 0.5 mg/kg/injection, schedule: Q01DX005 (ip), vehicle: saline with Tween-80): 92 % of control and 98 % of control | T/C (dose: 1.0 mg/kg/injection, schedule: Q01DX005 (ip), vehicle: saline with Tween-80): 103 % of control and 104 % of control | T/C (dose: 2.0 mg/kg/injection, schedule: Q01DX005 (ip), vehicle: saline with Tween-80): 91 % of control and 103 % of control

CNc1nc(N(C)C)nc(N(C)C)n1
T/C (dose: 16.0 mg/kg/injection, schedule: Q01DX005 (ip), vehicle: saline): 98 % of control and 111 % of control | T/C [1]: 101 % of control | T/C [2]: 104 % of control and 115 % of control | T/C [3]: 96 % of control and 111 % of control

CN(CCO)/N=N/c1nc[nH]c1C(N)=O
T/C [1]: 116 % of control | T/C [2]: 109 % of control and 112 % of control | T/C [3]: 114 % of control | T/C (dose: 256.0 mg/kg/injection, schedule: Q01DX005 (ip), vehicle: saline): 124 % of control

COC1OC(CNC(=O)N(C)N=O)C(O)C(O)C1O (centres undefined)
T/C (dose: 25.0 mg/kg/injection, schedule: Q01DX005 (ip), vehicle: saline): 124 % of control | T/C [4]: 121 % of control | T/C (dose: 400.0 mg/kg/injection, schedule: Q01DX005 (ip), vehicle: saline): 164 % of control

O=C1NC(c2ccc(Cl)cc2)(c2ccc(Cl)cc2)C(=O)N1Cl
T/C (dose: 1.56 mg/kg/injection, schedule: Q01DX009 (ip), vehicle: saline with Tween-80): 102 % of control | T/C (dose: 3.13 mg/kg/injection, schedule: Q01DX009 (ip), vehicle: saline with Tween-80): 105 % of control | T/C (dose: 6.25 mg/kg/injection, schedule: Q01DX009 (ip), vehicle: saline with Tween-80): 102 % of control | T/C (dose: 12.5 mg/kg/injection, schedule: Q01DX009 (ip), vehicle: saline with Tween-80): 101 % of control and 104 % of control | T/C (dose: 25.0 mg/kg/injection, schedule: Q01DX009 (ip), vehicle: saline with Tween-80): 95 % of control and 99 % of control | T/C (dose: 50.0 mg/kg/injection, schedule: Q01DX009 (ip), vehicle: saline with Tween-80): 101 % of control

OC(CBr)C(O)C(O)C(O)CBr (centres undefined)
T/C (dose: 2.0 mg/kg/injection, schedule: Q01DX005 (ip), vehicle: Klucel (hydroxypropylcellulose) (HPC)): 102 % of control | T/C (dose: 4.0 mg/kg/injection, schedule: Q01DX005 (ip), vehicle: Klucel (hydroxypropylcellulose) (HPC)): 106 % of control | T/C [4]: 122 % of control | T/C (dose: 100.0 mg/kg/injection, schedule: Q01DX005 (ip), vehicle: Klucel (hydroxypropylcellulose) (HPC)): 97 % of control | T/C (dose: 200.0 mg/kg/injection, schedule: Q01DX005 (ip), vehicle: Klucel (hydroxypropylcellulose) (HPC)): 109 % of control | T/C (dose: 200.0 mg/kg/injection, schedule: Q01DX005 (ip), vehicle: saline): 118 % of control and 195 % of control and 233 % of control

CC(C)=CCC1=C(O)c2ccccc2C(=O)C1=O
T/C (dose: 32.0 mg/kg/injection, schedule: Q01DX005 (ip), vehicle: Klucel (hydroxypropylcellulose) (HPC)): 91 % of control | T/C (dose: 64.0 mg/kg/injection, schedule: Q01DX005 (ip), vehicle: Klucel (hydroxypropylcellulose) (HPC)): 100 % of control | T/C (dose: 128.0 mg/kg/injection, schedule: Q01DX005 (ip), vehicle: Klucel (hydroxypropylcellulose) (HPC)): 96 % of control

CN1CC[C@]23c4c5ccc(O)c4O[C@H]2C(=O)CC[C@H]3[C@H]1C5
T/C (dose: 6.25 mg/kg/injection, schedule: Q01DX005 (iv), vehicle: saline): 113 % of control | T/C (dose: 12.5 mg/kg/injection, schedule: Q01DX005 (iv), vehicle: saline): 114 % of control | T/C (dose: 25.0 mg/kg/injection, schedule: Q01DX005 (iv), vehicle: saline): 122 % of control

O=C(NC1=C(N2CC2)C(=O)C(NC(=O)OCCO)=C(N2CC2)C1=O)OCCO
T/C (dose: 0.18 mg/kg/injection, schedule: Q01DX005 (ip), vehicle: saline): 106 % of control | T/C (dose: 0.39 mg/kg/injection, schedule: Q01DX005 (ip), vehicle: saline): 98 % of control | T/C (dose: 0.75 mg/kg/injection, schedule: Q01DX005 (ip), vehicle: saline): 102 % of control | T/C (dose: 1.5 mg/kg/injection, schedule: Q01DX005 (ip), vehicle: saline): 103 % of control and 108 % of control | T/C (dose: 3.0 mg/kg/injection, schedule: Q01DX005 (ip), vehicle: saline): 96 % of control and 115 % of control | T/C (dose: 6.0 mg/kg/injection, schedule: Q01DX005 (ip), vehicle: saline): 110 % of control and 113 % of control

S=c1nc[nH]c2nc[nH]c12
T/C (dose: 10.0 mg/kg/injection, schedule: Q01DX001 (ip), vehicle: Klucel (hydroxypropylcellulose) (HPC)): 92 % of control and 99 % of control and 101 % of control | T/C (dose: 20.0 mg/kg/injection, schedule: Q01DX001 (ip), vehicle: Klucel (hydroxypropylcellulose) (HPC)): 98 % of control and 100 % of control and 107 % of control | T/C (dose: 40.0 mg/kg/injection, schedule: Q01DX001 (ip), vehicle: Klucel (hydroxypropylcellulose) (HPC)): 100 % of control and 103 % of control (2×) | T/C (dose: 80.0 mg/kg/injection, schedule: Q01DX001 (ip), vehicle: Klucel (hydroxypropylcellulose) (HPC)): 95 % of control and 103 % of control and 107 % of control | T/C (dose: 160.0 mg/kg/injection, schedule: Q01DX001 (ip), vehicle: Klucel (hydroxypropylcellulose) (HPC)): 100 % of control and 101 % of control and 116 % of control
